Drawing on PubChem BioAssay (NCI), this text covers TGI for 8 compounds.

Some test systems named below: HOP-18 NSCLC; SN12C renal; SK-MEL-5 melanoma; SK-MEL-2 melanoma; HCT-116 colon; UACC-62 melanoma; CAKI-1 renal; SR leukemia; UO-31 renal.
Holding throughout (test): DTP human tumour cell line panel, 48 h

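Following 48 hours of exposure in 96-well plates, responses at five concentrations were used to interpolate endpoints linearly. TGI: total growth inhibition.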

Broadly, the TGI is the concentration giving total growth inhibition. Read a low TGI as greater sensitivity of the cells.

As to `O=C(O)CCCl`, the TGI is greater than 5000 µM in the experiment on HOP-18 NSCLC; greater than 5000 µM in the experiment with SN12C renal; greater than 5000 µM with SK-MEL-5 melanoma; greater than 5000 µM with SK-MEL-2 melanoma; greater than 5000 µM in the experiment on HCT-116 colon; 4740 µM in the experiment with UACC-62 melanoma. The TGI with CAKI-1 renal, in the experiment on SR leukemia and with UO-31 renal was greater than 5000 µM each time.

As to `C=C1C(=O)OC2/C=C(\C)C(OC(C)=O)C3OC3C(C)(O)CC(OC(=O)/C(C)=C/C)C12` (stereo not given), the TGI was 23.5 µM in the experiment on HOP-18 NSCLC; 47.4 µM in the experiment with SN12C renal; 27.4 µM in the experiment on SK-MEL-5 melanoma; 20.6 µM with SK-MEL-2 melanoma; 5.86 µM in the experiment on HCT-116 colon; 23.5 µM with UACC-62 melanoma. The TGI was found to be 5.94 µM in the experiment on CAKI-1 renal, 23.2 µM in the experiment with SR leukemia and 23 µM in the experiment with UO-31 renal.

For `S=c1sc2c(Cl)ncnc2n1-c1ccccc1`, the TGI with HOP-18 NSCLC was 39.5 µM; with SN12C renal, 29.4 µM; with SK-MEL-5 melanoma, 29.7 µM; with SK-MEL-2 melanoma, 21.3 µM; in the experiment on HCT-116 colon, 18.6 µM; in the experiment on UACC-62 melanoma, 21.4 µM. Moreover, the TGI is 13.8 µM in the experiment on CAKI-1 renal, 9.36 µM in the experiment on SR leukemia and 32.7 µM in the experiment on UO-31 renal.

On to `CCN(CC)CCNC(=O)c1ccccc1NC(=O)C(=O)Nc1ccccc1C(=O)NCCN(CC)CC`, for which the concentration for total growth inhibition (TGI) was greater than 100 µM in the experiment on HOP-18 NSCLC; greater than 100 µM in the experiment with SN12C renal; 35.6 µM in the experiment on SK-MEL-5 melanoma; greater than 100 µM in the experiment with SK-MEL-2 melanoma; 43.3 µM with HCT-116 colon; greater than 100 µM with UACC-62 melanoma. The TGI was greater than 100 µM in the experiment with CAKI-1 renal, 47.6 µM with SR leukemia and greater than 100 µM in the experiment on UO-31 renal.

For `O=C(Nc1c(O)[nH]c(=S)[nH]c1=O)c1ccccn1`, the TGI in the experiment with HOP-18 NSCLC, in the experiment on SN12C renal, in the experiment on SK-MEL-5 melanoma, in the experiment with SK-MEL-2 melanoma, with HCT-116 colon and in the experiment on UACC-62 melanoma was greater than 100 µM each time. In addition, the TGI with CAKI-1 renal, in the experiment on SR leukemia and in the experiment on UO-31 renal was greater than 100 µM each time.

With `Cc1ccc(S(=O)(=O)N/N=C/c2oc(-c3cccc([N+](=O)[O-])c3)c(-c3cccc([N+](=O)[O-])c3)c2[N+](=O)[O-])cc1`, the TGI with HOP-18 NSCLC is greater than 100 µM; with SN12C renal, greater than 100 µM; in the experiment with SK-MEL-5 melanoma, greater than 100 µM; in the experiment with SK-MEL-2 melanoma it was 76.9 µM; in the experiment with HCT-116 colon it was greater than 100 µM; in the experiment on UACC-62 melanoma, 49.3 µM. Moreover, the TGI is greater than 100 µM in the experiment with CAKI-1 renal, 45.8 µM with SR leukemia and 32.3 µM in the experiment on UO-31 renal.

Turning to `CC(=O)OCC1OC(Nc2[nH]c(=O)n(C)c(=O)c2-c2csc(N)n2)C(OC(C)=O)C(OC(C)=O)C1OC(C)=O` (stereo not given), the concentration for total growth inhibition (TGI) with HOP-18 NSCLC, in the experiment on SN12C renal, in the experiment with SK-MEL-5 melanoma, with SK-MEL-2 melanoma, with HCT-116 colon and in the experiment with UACC-62 melanoma was greater than 100 µM in each case. Besides, the TGI in the experiment with CAKI-1 renal, with SR leukemia and with UO-31 renal was greater than 100 µM in each case.

`C1=C(c2ccccc2)CN(c2ccccc2)OC1`: the TGI with HOP-18 NSCLC is 69.3 µM; in the experiment on SN12C renal it was greater than 100 µM; with SK-MEL-2 melanoma it was greater than 100 µM; with UACC-62 melanoma, greater than 100 µM; in the experiment with CAKI-1 renal it was greater than 100 µM; in the experiment with SR leukemia it was greater than 100 µM. In the experiment on UO-31 renal, this compound gave a TGI greater than 100 µM.
